Experimental data as given in paper PMC8821558, “Cryo-EM structures of human bradykinin receptor-Gq proteins complexes” (Nature Communications, 2022).

Assays:
B2R = conditions: cited from earlier work
Excerpt: The kallikrein-kinin system (KKS) consists of kininogens, kallikrein enzymes, kinins, type 1 and type 2 bradykinin receptors (B1R and B2R), which plays important roles in vasodilation, inflammation, vascular permeability, cardioprotection, coagulation, and pain[1]–[4]. Kinins are short-lived peptides of various lengths and they are produced by enzymatic hydrolysis of precursor kininogens. […] Both kinins ...

B2R D311A = biological target: T1, B2R D311A (Homo sapiens, UniProt P30411, D311A); assay: Calcium mobilization, CHO cells, B2R D311A; format: cell-based
T1 construct: expressed in transfected cells; host or cells: CHO cells
Protocol: (§1) CHO cells transfected with wild-type or mutated B2R and wild-type or mutated Gq were seeded into 96-well black plates at a density of 30,000 cells per well and incubated for 24 h. Then cells were loaded with reagents from Calcium-5 Assay Kit (Molecular Devices) for 45 min at 37 °C in 5% CO2 according to the manufacturer’s protocol. […] Data were analyzed by GraphPad Prism 5 and presented as Mean ± S.E.M. from three independent experiments.
(§2) Supplementary Table 3. […] Emax and
(§3) pEC50 values were presented as Mean±S.E.M. from three independent experiments.
(§4) NA represented not available. Source data are provided as a Source Data file.

[1] = biological target: T2, CryoEM B2R (MBP fusion) with CryoEM Gq (R183Q, Q209L) (Homo sapiens, UniProt P30411); assay: Calcium mobilization, CHO cells, CryoEM-B2R & CryoEM-Gq; format: cell-based; conditions: kallidin-induced calcium mobilization, Mean±S.E.M. from three independent experiments
T2 construct: HA tag (N); 10xHis tag + TEV site (N); expressed in transfected cells; host or cells: CHO cells
T2 sequence (P30411 29-391): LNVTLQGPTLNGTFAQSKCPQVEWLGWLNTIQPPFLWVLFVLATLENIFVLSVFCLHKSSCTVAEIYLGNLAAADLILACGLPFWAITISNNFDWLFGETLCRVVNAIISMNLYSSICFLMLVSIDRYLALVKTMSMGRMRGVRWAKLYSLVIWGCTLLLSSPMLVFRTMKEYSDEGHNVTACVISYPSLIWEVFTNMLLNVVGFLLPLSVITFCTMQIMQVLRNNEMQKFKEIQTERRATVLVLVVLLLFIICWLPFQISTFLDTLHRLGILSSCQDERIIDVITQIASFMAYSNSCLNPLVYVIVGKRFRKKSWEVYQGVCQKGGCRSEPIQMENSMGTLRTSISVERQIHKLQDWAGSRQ
T2 sequence (P50148 1-359 R183Q/Q209L partner): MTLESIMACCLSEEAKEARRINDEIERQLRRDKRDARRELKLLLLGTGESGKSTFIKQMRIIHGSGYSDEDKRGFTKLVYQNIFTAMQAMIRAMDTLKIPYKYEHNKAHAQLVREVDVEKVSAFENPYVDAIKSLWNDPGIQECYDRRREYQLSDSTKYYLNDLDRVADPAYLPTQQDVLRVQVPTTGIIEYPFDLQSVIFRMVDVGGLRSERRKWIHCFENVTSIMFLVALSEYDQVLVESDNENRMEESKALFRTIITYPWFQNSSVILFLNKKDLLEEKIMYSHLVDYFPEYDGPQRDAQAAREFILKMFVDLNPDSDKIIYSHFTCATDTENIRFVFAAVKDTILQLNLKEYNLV
Protocol: (§5) There was a 10xHis tag at the N-terminus of each subunit.
as §1
(§6) Supplementary Table 1 . Calcium mobilization results of WT and mutated
(§7) constructs. Emax and pEC50 values were presented as Mean±S.E.M. from three
(§8) independent experiments. Source data are provided as a Source Data file.

[2] = biological target: T3, wild-type human B2R with CryoEM Gq (R183Q, Q209L) (Homo sapiens, UniProt P30411); assay: Calcium mobilization, CHO cells, WT-B2R & CryoEM-Gq; format: cell-based; conditions: kallidin-induced calcium mobilization, Mean±S.E.M. from three independent experiments
T3 construct: expressed in transfected cells; host or cells: CHO cells
T3 sequence (P30411 1-391): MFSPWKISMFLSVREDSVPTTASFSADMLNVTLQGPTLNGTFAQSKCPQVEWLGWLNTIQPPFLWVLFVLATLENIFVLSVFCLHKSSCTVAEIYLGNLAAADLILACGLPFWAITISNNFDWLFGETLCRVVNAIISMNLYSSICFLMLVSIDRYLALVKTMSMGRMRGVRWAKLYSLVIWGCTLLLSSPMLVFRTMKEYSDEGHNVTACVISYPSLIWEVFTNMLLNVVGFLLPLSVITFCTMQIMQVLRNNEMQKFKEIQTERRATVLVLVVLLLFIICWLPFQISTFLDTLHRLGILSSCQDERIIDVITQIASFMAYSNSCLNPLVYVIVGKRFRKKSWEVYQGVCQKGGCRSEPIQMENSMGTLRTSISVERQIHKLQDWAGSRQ
Protocol: as §5, §1, §6, §7, §8

B2R W113A = biological target: T4, B2R W113A (Homo sapiens, UniProt P30411, W113A); assay: Calcium mobilization, CHO cells, B2R W113A; format: cell-based
T4 construct: expressed in transfected cells; host or cells: CHO cells
Protocol: as §1, §2, §3, §4

B2R E204A = biological target: T5, B2R E204A (Homo sapiens, UniProt P30411, E204A); assay: Calcium mobilization, CHO cells, B2R E204A; format: cell-based
T5 construct: expressed in transfected cells; host or cells: CHO cells
Protocol: as §1, §2, §3, §4

B2R F286A = biological target: T6, B2R F286A (Homo sapiens, UniProt P30411, F286A); assay: Calcium mobilization, CHO cells, B2R F286A; format: cell-based
T6 construct: expressed in transfected cells; host or cells: CHO cells
Protocol: as §1, §2, §3, §4

B2R Y201A = biological target: T7, B2R Y201A (Homo sapiens, UniProt P30411, Y201A); assay: Calcium mobilization, CHO cells, B2R Y201A; format: cell-based
T7 construct: expressed in transfected cells; host or cells: CHO cells
Protocol: as §1, §2, §3, §4

[3] = biological target: T8, wild-type human B2R with wild-type Gq (Homo sapiens, UniProt P30411); assay: Calcium mobilization, CHO cells, WT-B2R & WT-Gq (Calcium-5 kit, Flexstation 3, ex 485/em 525 nm); format: cell-based; conditions: kallidin-induced calcium mobilization, Mean±S.E.M. from three independent experiments
T8 construct: expressed in transfected cells; host or cells: CHO cells
Protocol: as §1
Supplementary Table 1 . Calcium mobilization results of WT and mutated constructs. Emax and pEC50 values were presented as Mean±S.E.M. from three independent experiments. Source data are provided as a Source Data file.
Supplementary Table 3. […] Emax and […]
as §3, §4

B2R Q315A = biological target: T9, B2R Q315A (Homo sapiens, UniProt P30411, Q315A); assay: Calcium mobilization, CHO cells, B2R Q315A; format: cell-based
T9 construct: expressed in transfected cells; host or cells: CHO cells
Protocol: as §1, §2, §3, §4

B2R T290A = biological target: T10, B2R T290A (Homo sapiens, UniProt P30411, T290A); assay: Calcium mobilization, CHO cells, B2R T290A; format: cell-based
T10 construct: expressed in transfected cells; host or cells: CHO cells
Protocol: as §1, §2, §3, §4

B2R D293A = biological target: T11, B2R D293A (Homo sapiens, UniProt P30411, D293A); assay: Calcium mobilization, CHO cells, B2R D293A; format: cell-based
T11 construct: expressed in transfected cells; host or cells: CHO cells
Protocol: as §1, §2, §3, §4

B2R Y322A = biological target: T12, B2R Y322A (Homo sapiens, UniProt P30411, Y322A); assay: Calcium mobilization, CHO cells, B2R Y322A; format: cell-based
T12 construct: expressed in transfected cells; host or cells: CHO cells
Protocol: as §1, §2, §3, §4

B2R S289A = biological target: T13, B2R S289A (Homo sapiens, UniProt P30411, S289A); assay: Calcium mobilization, CHO cells, B2R S289A; format: cell-based
T13 construct: expressed in transfected cells; host or cells: CHO cells
Protocol: as §1, §2, §3, §4

B2R R297A = biological target: T14, B2R R297A (Homo sapiens, UniProt P30411, R297A); assay: Calcium mobilization, CHO cells, B2R R297A; format: cell-based
T14 construct: expressed in transfected cells; host or cells: CHO cells
Protocol: as §1, §2, §3, §4

B2R I213A = biological target: T15, B2R I213A (Homo sapiens, UniProt P30411, I213A); assay: Calcium mobilization, CHO cells, B2R I213A; format: cell-based
T15 construct: expressed in transfected cells; host or cells: CHO cells
Protocol: as §1, §2, §3, §4

B2R F121A = biological target: T16, B2R F121A (Homo sapiens, UniProt P30411, F121A); assay: Calcium mobilization, CHO cells, B2R F121A; format: cell-based
T16 construct: expressed in transfected cells; host or cells: CHO cells
Protocol: as §1, §2, §3, §4

T13 sequence (P30411 whole entry S289A): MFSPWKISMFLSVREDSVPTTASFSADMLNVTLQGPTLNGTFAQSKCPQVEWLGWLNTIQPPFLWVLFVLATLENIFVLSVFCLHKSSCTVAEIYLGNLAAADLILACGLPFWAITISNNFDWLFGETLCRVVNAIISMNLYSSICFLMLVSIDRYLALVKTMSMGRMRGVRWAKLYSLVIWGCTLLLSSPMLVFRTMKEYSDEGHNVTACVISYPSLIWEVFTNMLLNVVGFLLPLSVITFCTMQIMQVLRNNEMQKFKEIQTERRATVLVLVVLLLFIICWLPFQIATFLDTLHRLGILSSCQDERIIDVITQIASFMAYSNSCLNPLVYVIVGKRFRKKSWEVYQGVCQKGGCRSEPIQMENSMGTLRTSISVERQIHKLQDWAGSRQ
T13 sequence (P50148 whole entry partner): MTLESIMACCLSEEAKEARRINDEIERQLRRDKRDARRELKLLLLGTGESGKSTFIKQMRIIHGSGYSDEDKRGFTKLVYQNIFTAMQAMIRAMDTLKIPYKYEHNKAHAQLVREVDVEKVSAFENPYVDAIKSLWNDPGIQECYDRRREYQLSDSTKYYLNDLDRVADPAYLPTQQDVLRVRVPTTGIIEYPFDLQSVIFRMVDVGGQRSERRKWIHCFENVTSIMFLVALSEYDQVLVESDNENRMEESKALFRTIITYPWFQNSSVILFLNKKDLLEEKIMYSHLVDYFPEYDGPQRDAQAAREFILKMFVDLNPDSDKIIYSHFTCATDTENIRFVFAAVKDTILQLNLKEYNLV
T13 sequence (P62873 2-340 partner limits assumed): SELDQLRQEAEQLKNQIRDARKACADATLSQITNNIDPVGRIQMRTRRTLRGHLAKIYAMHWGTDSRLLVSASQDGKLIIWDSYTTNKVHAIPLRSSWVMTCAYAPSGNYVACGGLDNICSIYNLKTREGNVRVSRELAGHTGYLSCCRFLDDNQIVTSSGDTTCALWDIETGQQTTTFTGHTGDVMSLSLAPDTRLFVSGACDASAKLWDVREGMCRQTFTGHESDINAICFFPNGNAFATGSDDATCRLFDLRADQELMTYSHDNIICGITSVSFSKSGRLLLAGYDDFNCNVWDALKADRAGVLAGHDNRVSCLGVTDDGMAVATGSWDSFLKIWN
T13 sequence (P59768 2-68 partner limits assumed): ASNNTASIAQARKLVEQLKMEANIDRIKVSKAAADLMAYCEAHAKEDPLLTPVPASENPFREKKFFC
T7 sequence (P30411 whole entry Y201A): as the sequence (P30411 whole entry S289A) above, with Y201A, A289S counted along it
T7 sequence (P50148 whole entry partner): as the sequence (P50148 whole entry partner) above
T7 sequence (P62873 2-340 partner limits assumed): as the sequence (P62873 2-340 partner limits assumed) above
T7 sequence (P59768 2-68 partner limits assumed): as the sequence (P59768 2-68 partner limits assumed) above
T16 sequence (P30411 whole entry F121A): as the sequence (P30411 whole entry S289A) above, with F121A, A289S counted along it
T16 sequence (P50148 whole entry partner): as the sequence (P50148 whole entry partner) above
T16 sequence (P62873 2-340 partner limits assumed): as the sequence (P62873 2-340 partner limits assumed) above
T16 sequence (P59768 2-68 partner limits assumed): as the sequence (P59768 2-68 partner limits assumed) above
T8 sequence (P50148 whole entry partner, one chain of several): as the sequence (P50148 whole entry partner) above
T8 sequence (P62873 2-340 partner limits assumed, one chain of several): as the sequence (P62873 2-340 partner limits assumed) above
T8 sequence (P59768 2-68 partner limits assumed, one chain of several): as the sequence (P59768 2-68 partner limits assumed) above

Row | Compound | antagonist class at B2R (B2R) | EC50 (B2R D311A) [nM] | EC50 [1] [nM] | EC50 [2] [nM] | EC50 (B2R W113A) [nM] | EC50 (B2R E204A) [nM] | EC50 (B2R F286A) [nM] | EC50 (B2R Y201A) [nM] | EC50 [3] [nM] | EC50 (B2R Q315A) [nM] | EC50 (B2R T290A) [nM] | EC50 (B2R D293A) [nM] | EC50 (B2R Y322A) [nM] | EC50 (B2R S289A) [nM] | EC50 (B2R R297A) [nM] | EC50 (B2R I213A) [nM] | EC50 (B2R F121A) [nM]
1 | D-Arg-Arg-Pro-Hyp-Gly-Thi-Ser-D-Tic-Oic-Arg [icatibant] | B2R selective antagonist |  |  |  |  |  |  |  |  |  |  |  |  |  |  |  | 
2 | NCCCC[C@H](N)C(=O)N[C@@H](CCCN=C(N)N)C(=O)N1CCC[C@H]1C(=O)N1CCC[C@H]1C(=O)NCC(=O)N[C@@H](Cc1ccccc1)C(=O)N[C@@H](CO)C(=O)N1CCC[C@H]1C(=O)N[C@@H](Cc1ccccc1)C(=O)N[C@@H](CCCN=C(N)N)C(=O)O [kallidin] |  | 16.7 | 6.67 | 2.39 | 1050 | 13 | 112 | 92.9 | 0.753 | 66.7 | 23.7 | 5.38 | 21.5 | 1.38 | 1.62 | 110 | 774
